# Results from ChEMBL document CHEMBL1201862, “PubChem BioAssay data set” (2004).
# Activity calls are given as the source filed them.
# Key:
# [1] = C. albicans growth with fluconazole, confirmation, fluorescence, retest (AID 2467); type: functional, cell-based
# [2] = target: Dual specificity tyrosine-phosphorylation-regulated kinase 1A (Homo sapiens, UniProt Q13627); type: functional;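 note: measured against DYRK1A as one member of a broad kinome profiling panel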
# [3] = target: MAP/microtubule affinity-regulating kinase 3 (Homo sapiens, UniProt P27448); type: functional;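 note: MARK3 affinity measured as one member of a kinome panel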
# MAP/microtubule affinity-regulating kinase 3, sequence (P27448 whole entry): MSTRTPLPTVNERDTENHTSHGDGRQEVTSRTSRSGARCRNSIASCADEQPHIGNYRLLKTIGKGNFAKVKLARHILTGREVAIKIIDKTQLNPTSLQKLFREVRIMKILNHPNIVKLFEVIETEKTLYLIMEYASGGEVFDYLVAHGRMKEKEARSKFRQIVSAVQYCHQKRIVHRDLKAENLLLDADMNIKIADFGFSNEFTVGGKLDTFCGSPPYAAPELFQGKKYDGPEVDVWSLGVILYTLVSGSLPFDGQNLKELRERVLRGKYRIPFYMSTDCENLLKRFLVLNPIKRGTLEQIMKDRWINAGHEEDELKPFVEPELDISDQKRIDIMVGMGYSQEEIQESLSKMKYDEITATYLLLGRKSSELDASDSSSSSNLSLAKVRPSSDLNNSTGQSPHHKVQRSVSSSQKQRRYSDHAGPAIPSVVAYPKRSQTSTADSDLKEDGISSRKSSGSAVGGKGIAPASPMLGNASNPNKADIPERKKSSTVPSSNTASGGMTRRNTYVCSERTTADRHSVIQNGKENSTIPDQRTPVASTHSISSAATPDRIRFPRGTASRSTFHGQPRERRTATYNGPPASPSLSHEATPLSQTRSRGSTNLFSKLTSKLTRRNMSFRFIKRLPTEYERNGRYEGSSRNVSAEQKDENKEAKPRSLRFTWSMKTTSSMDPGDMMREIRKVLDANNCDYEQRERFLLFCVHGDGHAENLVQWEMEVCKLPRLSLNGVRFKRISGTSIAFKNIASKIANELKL
# [4] = target: Tyrosine-protein kinase receptor TYRO3 (Homo sapiens, UniProt Q06418); type: functional;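 note: TYRO3 value obtained as one member of a kinome-wide profiling panel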
# Tyrosine-protein kinase receptor TYRO3, sequence (Q06418 whole entry): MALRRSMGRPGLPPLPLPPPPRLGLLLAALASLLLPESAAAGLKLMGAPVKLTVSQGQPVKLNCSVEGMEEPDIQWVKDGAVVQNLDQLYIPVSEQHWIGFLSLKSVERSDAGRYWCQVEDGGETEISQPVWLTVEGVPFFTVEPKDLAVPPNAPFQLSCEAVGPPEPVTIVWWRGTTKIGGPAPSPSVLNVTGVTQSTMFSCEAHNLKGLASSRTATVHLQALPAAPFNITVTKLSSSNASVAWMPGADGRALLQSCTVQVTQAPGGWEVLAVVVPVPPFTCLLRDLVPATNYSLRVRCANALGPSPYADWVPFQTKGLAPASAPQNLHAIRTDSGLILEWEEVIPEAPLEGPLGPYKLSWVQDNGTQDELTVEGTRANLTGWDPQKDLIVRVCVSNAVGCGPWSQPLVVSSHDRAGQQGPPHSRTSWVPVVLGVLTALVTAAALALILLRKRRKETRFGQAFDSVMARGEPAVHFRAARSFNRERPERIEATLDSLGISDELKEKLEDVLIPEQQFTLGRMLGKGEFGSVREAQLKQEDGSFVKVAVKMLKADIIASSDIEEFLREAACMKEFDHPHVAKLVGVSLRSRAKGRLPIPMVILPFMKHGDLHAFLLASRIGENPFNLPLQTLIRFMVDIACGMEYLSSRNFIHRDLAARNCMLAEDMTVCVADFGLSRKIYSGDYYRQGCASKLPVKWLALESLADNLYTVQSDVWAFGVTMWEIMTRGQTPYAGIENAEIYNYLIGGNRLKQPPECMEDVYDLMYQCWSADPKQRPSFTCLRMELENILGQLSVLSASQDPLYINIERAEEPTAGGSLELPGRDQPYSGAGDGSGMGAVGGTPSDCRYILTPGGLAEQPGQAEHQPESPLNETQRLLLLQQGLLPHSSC
# [5] = target: Serine/threonine-protein kinase pim-1 (Homo sapiens, UniProt P11309); type: functional
# Serine/threonine-protein kinase pim-1, sequence (P11309 whole entry): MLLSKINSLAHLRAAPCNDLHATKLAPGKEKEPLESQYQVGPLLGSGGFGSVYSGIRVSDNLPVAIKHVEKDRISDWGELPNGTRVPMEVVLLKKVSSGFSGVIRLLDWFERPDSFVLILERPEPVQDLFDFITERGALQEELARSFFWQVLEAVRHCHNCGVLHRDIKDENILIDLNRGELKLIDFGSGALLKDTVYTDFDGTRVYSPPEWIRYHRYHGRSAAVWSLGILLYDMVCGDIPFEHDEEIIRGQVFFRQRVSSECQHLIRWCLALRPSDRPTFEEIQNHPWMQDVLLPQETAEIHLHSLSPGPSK
# [6] = target: ALK tyrosine kinase receptor (Homo sapiens, UniProt Q9UM73); type: functional;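 note: ALK tested as one member of a kinase panel screen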
# ALK tyrosine kinase receptor, sequence (Q9UM73 whole entry): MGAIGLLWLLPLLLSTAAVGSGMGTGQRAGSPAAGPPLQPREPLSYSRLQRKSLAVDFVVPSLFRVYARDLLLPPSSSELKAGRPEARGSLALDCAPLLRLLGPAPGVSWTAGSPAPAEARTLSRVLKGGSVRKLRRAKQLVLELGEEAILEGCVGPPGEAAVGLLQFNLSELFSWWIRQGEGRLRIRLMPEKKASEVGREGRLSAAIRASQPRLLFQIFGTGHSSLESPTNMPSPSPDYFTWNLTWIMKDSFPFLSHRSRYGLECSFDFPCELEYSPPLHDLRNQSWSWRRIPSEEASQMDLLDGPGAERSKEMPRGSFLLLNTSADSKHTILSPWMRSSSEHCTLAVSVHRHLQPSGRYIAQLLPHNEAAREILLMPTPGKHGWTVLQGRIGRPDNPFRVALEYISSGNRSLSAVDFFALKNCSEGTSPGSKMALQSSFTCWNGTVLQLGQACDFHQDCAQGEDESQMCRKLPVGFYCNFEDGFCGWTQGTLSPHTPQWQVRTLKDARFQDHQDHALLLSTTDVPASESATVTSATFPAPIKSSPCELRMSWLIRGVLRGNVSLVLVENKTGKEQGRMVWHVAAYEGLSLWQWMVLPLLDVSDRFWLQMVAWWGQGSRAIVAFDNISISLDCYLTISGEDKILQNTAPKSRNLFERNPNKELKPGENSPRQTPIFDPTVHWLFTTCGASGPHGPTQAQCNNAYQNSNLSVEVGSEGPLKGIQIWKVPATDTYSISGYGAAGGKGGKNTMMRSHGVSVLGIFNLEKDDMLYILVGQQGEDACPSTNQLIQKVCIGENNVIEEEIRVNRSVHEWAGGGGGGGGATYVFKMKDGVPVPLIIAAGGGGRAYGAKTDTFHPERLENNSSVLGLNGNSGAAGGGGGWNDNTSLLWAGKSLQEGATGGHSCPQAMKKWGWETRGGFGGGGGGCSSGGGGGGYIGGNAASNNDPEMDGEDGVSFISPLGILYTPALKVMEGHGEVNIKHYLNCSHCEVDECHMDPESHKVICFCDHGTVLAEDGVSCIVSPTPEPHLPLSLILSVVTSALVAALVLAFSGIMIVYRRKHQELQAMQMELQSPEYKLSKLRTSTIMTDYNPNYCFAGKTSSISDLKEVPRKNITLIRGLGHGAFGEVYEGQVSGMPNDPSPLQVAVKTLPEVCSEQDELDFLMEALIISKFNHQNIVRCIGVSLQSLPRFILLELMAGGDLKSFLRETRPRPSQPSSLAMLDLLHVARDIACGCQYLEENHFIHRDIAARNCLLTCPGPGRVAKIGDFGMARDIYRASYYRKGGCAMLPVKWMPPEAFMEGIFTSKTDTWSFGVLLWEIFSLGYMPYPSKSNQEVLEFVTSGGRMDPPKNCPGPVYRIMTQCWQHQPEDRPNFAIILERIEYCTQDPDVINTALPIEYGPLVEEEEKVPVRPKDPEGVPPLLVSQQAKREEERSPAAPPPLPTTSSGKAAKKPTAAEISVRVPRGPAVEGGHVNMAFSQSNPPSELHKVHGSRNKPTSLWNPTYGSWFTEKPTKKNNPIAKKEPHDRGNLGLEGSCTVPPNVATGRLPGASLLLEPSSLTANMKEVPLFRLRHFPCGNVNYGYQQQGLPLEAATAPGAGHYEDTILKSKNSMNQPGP
# [7] = target: Tyrosine-protein kinase Lck (Homo sapiens, UniProt P06239); type: functional;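 note: lck was assayed as one member of a kinase panel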
# Tyrosine-protein kinase Lck, sequence (P06239 whole entry): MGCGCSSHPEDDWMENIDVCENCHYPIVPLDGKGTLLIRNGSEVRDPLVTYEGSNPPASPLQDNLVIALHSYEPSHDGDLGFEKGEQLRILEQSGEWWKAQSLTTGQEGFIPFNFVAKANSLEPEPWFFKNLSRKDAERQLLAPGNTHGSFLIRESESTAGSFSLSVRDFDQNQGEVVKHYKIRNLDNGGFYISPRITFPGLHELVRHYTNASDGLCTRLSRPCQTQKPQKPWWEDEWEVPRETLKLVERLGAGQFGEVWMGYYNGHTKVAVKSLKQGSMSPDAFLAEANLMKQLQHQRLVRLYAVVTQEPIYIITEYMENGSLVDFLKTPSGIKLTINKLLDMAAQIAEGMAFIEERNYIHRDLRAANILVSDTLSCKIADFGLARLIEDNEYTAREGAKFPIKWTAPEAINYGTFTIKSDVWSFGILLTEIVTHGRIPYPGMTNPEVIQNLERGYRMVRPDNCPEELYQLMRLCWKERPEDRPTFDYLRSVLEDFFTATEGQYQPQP
Ki [2],Ki [3],Ki [4],Ki [5],Ki [6],Ki [7],Structure (SMILES),EC50 [1]
,,,,,,CCCC(=O)NC(c1ccc(N(C)C)cc1)c1ccc2cccnc2c1O (configuration not stated),626 nM (active)
> 2 µM (inactive),398 nM (active),> 2 µM (inactive),100 nM (active),3.98 µM (active),> 6.31 µM (inactive),O=C1NC(=O)C(c2c[nH]c3ccccc23)=C1c1nc(N2CCNCC2)nc2ccccc12,
